Earlier results on 1 molecule are cited in patent US20040148013A1, “Stent-based delivery statins to prevent restenosis” (priority 2003, published 2004).

The test system of one data set is neointimal accumulation. The conditions noted are these: in vivo, rat carotid artery injury model.

Turning to `CC(=O)O[C@H]1C(=O)[C@@]2(C)[C@H]([C@H](OC(=O)c3ccccc3)[C@]3(O)C[C@H](OC(=O)[C@H](O)[C@@H](NC(=O)c4ccccc4)c4ccccc4)C(C)=C1C3(C)C)[C@]1(OC(C)=O)CO[C@@H]1C[C@@H]2O` [Taxol®, Paclitaxel], in the data set on SMC (biologically relevant concentrations), the induction of apoptosis entry is given as “does not appear to induce apoptosis”. In the data set on SMC (in vitro), the SMC proliferation result is reported as “inhibited” and the “platelet-derived growth factor-stimulated SMC migration” value was “inhibited”. The neointimal accumulation result with neointimal accumulation is reported as “inhibited neointimal accumulation”.
